Results taken from PMC9576799, “Discovery of small molecule inhibitors that effectively disrupt IQGAP1-Cdc42 interaction in breast cancer cells” (Scientific Reports, 2022).
Where two headings read alike, the source gives them in different places.

Key:
[1] = tested on: control MCF7 cells; experiment: CellTiter-Glo cell viability assay, control MCF7; format: cell-based, human; details: 72 h
Experimental: Selected hit compounds were tested in CellTiterGlo cell viability assays to determine their cytotoxic effect on IQGAP1 knockout and control MCF7 cells. Prior to the assay, we assessed cell proliferation to keep both cell lines at similar exponential growth rates within 80 h after plating. For this purpose, the cells were plated onto 384-well clear bottom black plates (Perkin Elmer, Ultra) at various cell densities (between 625 and 10,000 cells/50µL/well), spun down for 15 s, and placed into Incucyte SX5 (Essen BioScience) for automated bright-field channel reading every 4 h. […] For the cytotoxicity assays, cells were harvested with 0.05% trypsin, spun down at 125xg for 5 min, re-suspended in fresh DMEM supplemented with 5% (v/v) FBS, and seeded into 1536-well white solid bottom tissue culture-treated plates (Greiner One, #789173-F) at 600 cells/5µL/well for knockout cells and 300 cells/5µL/well for control cells using a Multidrop Combi dispenser (Thermo Fisher Scientific Inc.). One column on each plate was dispensed with growth medium only (no cells) to gauge the maximal potential cytotoxic effect (IC100 control). The plates were kept in a tissue culture incubator at 37 °C with 5% CO2 for ~ 20 h for attachment and recovery of the cells. The next day, selected compounds were pin-transferred into the wells in columns 5–48, 23nL/well at 7-point 1:3 serial dilution, in the range of 46 µM to 78 nM final assay concentration. DMSO was used as the vehicle control (IC0). The plates were covered with stainless steel cell culture Kalypsys lids and incubated at 37 °C with 5% CO2 under 95% humidity for 72 h.
Plates and reagents were equilibrated to room temperature and then 5 µL/well of CellTiter Glo (Promega, #G7570) reagent was dispensed with a Multidrop Combi dispenser to the assay plates. After incubation for 10 min at ambient temperature, the luminescence signal was read with a ViewLux instrument (Perkin Elmer) with one second exposure. Relative luminescent units (RLU) for each well were normalized to the median RLUs from DMSO control wells as […] and “no cells” control wells as 100% viability.

[2] = target: T1, GST-Cdc42-Q61L-His (Homo sapiens, UniProt P60953, Q61L); experiment: HTRF counter-screen with double-tagged Cdc42; details: 100 nM GST-Cdc42-Q61L-His
T1 construct: His (hexa-histidine in the Results); made in house; host or cells: Escherichia coli BL-21
Experimental: (§1) Two different HTRF counter-screens were used to identify false positive hits. The two interacting proteins GST-IQGAP1-C and His-Cdc42-Q61L were replaced with His-tagged GST or Cdc42-Q61L containing GST at the N-terminus and His at the C-terminus (GST-Cdc42-Q61L-His).
First, GST-Cdc42-Q61L-His was titrated in parallel with the pre-mixed His-Cdc42-Q61L and GST-IQGAP1-C to comparatively match the signal level to the signal of the primary HTRF assay. We chose 100 nM GST-Cdc42-Q61L-His protein as the final concentration for the counter-screen. The assay protocol is outlined in Supplementary Table S2 online. Briefly, 4 μL/well of […] diluted in binding buffer was dispensed to the plates, followed by pinning 23 nL/well of selected hit compounds from the primary screening and addition of 2 μL/well premixed HTRF antibodies. After 3 h, 1 μL/well of 2.8 M potassium fluoride was added to the assay and the fluorescence signal was read on the Envision instrument. For controls, we used pre-mixed proteins GST-IQGAP1-C and His-Cdc42-Q61L (primary assay’s regular conditions) as IC100, and […] at 1.5 nM final concentration as IC0.
(§2) Supplementary Table S2: Counter-screening HTRF protocol.
(§3) Step Parameter Value Description
(§4) 1a Protein 4 µL 100 nM His-GST (final concentration), diluted in
(§5) 1b Controls 4 µL Column 2: GST-IQGAP1-C protein only [1.5nM] final
(§6) Column 3: pre-mixed proteins (regular assay
(§7) 2 Compounds 23 nL Selected compounds were pin-transferred from DMSO
(§8) HTRF α-His-XL (5 ng/µL, 3X working concentration) +
(§9) 3 antibodies 2 µL α-GST-K (0.7 ng/µL 3X working concentration),
(§10) pre-mix mixed in binding buffer
(§11) 4 Time 3 Incubation (ambient temperature)
(§12) 5 Reagent 1 µL 2.8 M KF (7x)
(§13) 6 Detector HTRF Envision plate reader (excitation: 340 nm, emission: […]

[3] = target: T2, His-tagged GST (Schistosoma japonicum, UniProt P08515); experiment: HTRF counter-screen with His-GST; details: 100 nM His-GST
T2 construct: purchased Millipore #12-523
Experimental: as §1
The second counter-screen was performed with 100 nM His-tagged GST following the protocol described above.
as §2, §3, §4, §5, §6, §7, §8, §9, §10, §11, §12, §13

[4] = target: T3, endogenous IQGAP1/Cdc42 interaction (Homo sapiens, UniProt P46940+P60953); experiment: Immunoprecipitation of endogenous IQGAP1 and co-precipitated Cdc42 in HEK293 cell lysates; format: binding; details: DMSO = 100% binding
T3 construct: endogenous in cells; host or cells: HEK293 cell lysate
Experimental: Each compound was added to lysates from HEK293 cells at a final concentration of 50 µM and endogenous IQGAP1 was immunoprecipitated. DMSO alone was used as the negative control (100% binding).
HEK293 cells were plated in 10-cm dishes to reach 80% confluence. The following day, the cells were washed with ice-cold phosphate-buffered saline (PBS) and lysed with 500 µl of Buffer A (50 mM Tris–HCl, pH 7.4, 150 mM NaCl, and 1% Triton X-100) supplemented with complete protease and phosphatase inhibitors (Roche, Mannheim, Germany). Lysates were subjected to two rounds of sonication for 10 s each, and insoluble material was precipitated by centrifugation at 13,000 xg for 10 min at 4 °C. Supernatants were precleared with protein A-Sepharose beads for 1 h. DMSO (vehicle) or different concentrations of the compounds (0.2, 0.6, 1, 5, 16 or 50 µM) were added to equal amounts of protein lysates for 30 min. Protein A-Sepharose beads and anti-IQGAP1 polyclonal antibodies were then added for 2 h at 4 °C. Anti-rabbit IgG antibodies were used as the immunoprecipitation control. Samples were washed five times with Buffer A, resolved by SDS-PAGE and transferred to polyvinylidene fluoride (PVDF) membranes (Millipore Corp). Membranes were probed with anti-IQGAP1 and anti-Cdc42 antibodies. After secondary antibody detection, Western blots were imaged using a LI-COR Odyssey infrared imaging system (LI-COR, USA). Western blot quantification and analysis was conducted using Image Studio™ Lite (LI-COR Biosciences).

T1 sequence (P60953 2-191 isoform P60953-1 Q61L): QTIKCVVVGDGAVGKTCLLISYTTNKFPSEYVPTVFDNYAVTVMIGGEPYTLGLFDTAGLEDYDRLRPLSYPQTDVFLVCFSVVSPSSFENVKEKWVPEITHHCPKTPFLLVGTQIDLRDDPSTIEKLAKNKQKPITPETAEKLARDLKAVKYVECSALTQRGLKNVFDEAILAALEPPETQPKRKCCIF
T3 sequence (P46940 2-1657 limits assumed): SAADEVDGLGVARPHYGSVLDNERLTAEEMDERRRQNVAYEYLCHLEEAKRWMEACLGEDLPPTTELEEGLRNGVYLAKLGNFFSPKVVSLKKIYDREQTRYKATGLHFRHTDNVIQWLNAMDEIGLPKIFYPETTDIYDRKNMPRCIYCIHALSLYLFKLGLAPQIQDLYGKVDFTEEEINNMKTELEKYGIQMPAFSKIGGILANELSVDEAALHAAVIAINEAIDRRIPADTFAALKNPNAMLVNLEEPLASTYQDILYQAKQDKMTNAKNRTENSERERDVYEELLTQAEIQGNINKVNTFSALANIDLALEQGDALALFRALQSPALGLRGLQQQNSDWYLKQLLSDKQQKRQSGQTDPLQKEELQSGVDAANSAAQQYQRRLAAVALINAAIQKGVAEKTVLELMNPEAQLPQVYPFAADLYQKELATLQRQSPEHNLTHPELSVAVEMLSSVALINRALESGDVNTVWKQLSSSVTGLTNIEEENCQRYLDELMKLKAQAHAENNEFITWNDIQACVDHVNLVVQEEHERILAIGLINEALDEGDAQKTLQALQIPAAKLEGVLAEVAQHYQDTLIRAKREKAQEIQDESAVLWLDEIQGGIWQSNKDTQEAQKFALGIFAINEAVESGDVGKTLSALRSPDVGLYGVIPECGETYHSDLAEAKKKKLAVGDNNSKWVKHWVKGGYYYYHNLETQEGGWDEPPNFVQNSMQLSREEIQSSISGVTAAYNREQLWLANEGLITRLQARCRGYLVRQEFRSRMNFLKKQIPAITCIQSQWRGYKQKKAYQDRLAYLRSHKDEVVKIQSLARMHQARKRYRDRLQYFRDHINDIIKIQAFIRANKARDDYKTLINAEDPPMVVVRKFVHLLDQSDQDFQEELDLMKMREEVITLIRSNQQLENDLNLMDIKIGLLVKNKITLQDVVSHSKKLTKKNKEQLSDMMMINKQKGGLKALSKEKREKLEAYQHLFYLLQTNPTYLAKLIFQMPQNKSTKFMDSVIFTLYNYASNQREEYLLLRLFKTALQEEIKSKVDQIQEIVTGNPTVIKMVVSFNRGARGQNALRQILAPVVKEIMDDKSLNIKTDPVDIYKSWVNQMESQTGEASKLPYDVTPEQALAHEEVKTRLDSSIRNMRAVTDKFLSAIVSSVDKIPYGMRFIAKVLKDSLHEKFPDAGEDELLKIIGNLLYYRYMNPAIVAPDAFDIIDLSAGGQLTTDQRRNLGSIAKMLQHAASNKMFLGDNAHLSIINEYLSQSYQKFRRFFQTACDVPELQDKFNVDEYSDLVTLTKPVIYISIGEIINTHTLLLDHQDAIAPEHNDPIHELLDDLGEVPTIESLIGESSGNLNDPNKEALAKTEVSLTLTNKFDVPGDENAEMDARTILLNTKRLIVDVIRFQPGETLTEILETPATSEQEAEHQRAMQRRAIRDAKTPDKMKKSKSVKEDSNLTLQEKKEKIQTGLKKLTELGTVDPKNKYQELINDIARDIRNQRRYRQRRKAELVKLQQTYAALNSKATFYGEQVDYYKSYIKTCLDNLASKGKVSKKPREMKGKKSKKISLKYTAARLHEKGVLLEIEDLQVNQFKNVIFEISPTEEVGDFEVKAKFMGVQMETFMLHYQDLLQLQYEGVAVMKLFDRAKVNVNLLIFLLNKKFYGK
T3 sequence (P60953 1-188 limits assumed): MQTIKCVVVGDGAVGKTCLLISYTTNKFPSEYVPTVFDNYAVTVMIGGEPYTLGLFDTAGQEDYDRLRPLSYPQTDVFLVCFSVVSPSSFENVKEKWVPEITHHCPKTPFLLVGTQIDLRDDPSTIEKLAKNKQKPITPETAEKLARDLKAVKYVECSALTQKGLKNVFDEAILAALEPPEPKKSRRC
T2 sequence (P08515 whole entry): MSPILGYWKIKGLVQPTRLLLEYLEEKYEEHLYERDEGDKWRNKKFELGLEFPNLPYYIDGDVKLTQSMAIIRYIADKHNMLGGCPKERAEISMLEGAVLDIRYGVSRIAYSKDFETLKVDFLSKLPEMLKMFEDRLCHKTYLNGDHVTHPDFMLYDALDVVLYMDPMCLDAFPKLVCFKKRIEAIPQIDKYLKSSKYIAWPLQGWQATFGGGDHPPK

CCN(CC)CCn1c2ccccc2c2nc3ccc([N+](=O)[O-])cc3cc21 [MLS000332963]
cytotoxicity efficacy [1]: 47%
EC50 ([1]; read-out: cytotoxicity EC50): 19.9 µM
activity in double-tagged Cdc42 counter-screen [2]: inactive
activity in His-GST counter-screen [3]: inactive

Cc1cccc(NC(=O)c2c(NC(=O)C(F)(F)F)sc3c2CCCCC3)c1 [NCGC00098561]
IC50 ([1]; Homo sapiens, read-out: cytotoxicity EC50): 2.24 µM
Emax ([1]; Homo sapiens, read-out: cytotoxicity efficacy): ~100%
activity in double-tagged Cdc42 counter-screen [2]: not active
activity in His-GST counter-screen [3]: not active

CCN1CCN(c2ncc3c(n2)CCN(Cc2cc(Br)cs2)C3)CC1 [NCGC00131308]
EC50 ([2]; read-out: EC50 in double-tagged Cdc42 counter-screen): 4.47 µM
reduction of interaction between endogenous IQGAP1 and Cdc42 (mean) ([4]; 16 µM (Fig. 3b)): 60%

CCc1ccccc1Nc1ncnc2c1cnn2-c1ccc(Cl)cc1 [NCGC00138812]
EC50 [2]: 6.31 µM
reduction of interaction between endogenous IQGAP1 and Cdc42 (mean) ([4]; 0.2 µM (Fig. 3b)): 47%
